Experiments:
Experiment in all cases: relative viability (nuclei count vs DMSO), 5 days (fraction); higher = more cells survive
[1] = compound: CC(C)=CC[C@@H](O)C1=CC(=O)c2c(O)ccc(O)c2C1=O [Shikonin] + COc1cccc2cc(-c3nc([C@H]4CC[C@H](C(=O)O)CC4)n4ncnc(N)c34)[nH]c12 [OSI-027] (partner 0.5 µM)
How it was run: (§1)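 Lung cancer cell lines in 1536-well plates got either a single drug or a fixed anchor-drug dose together with five library-drug doses (not always all listed) in √10 steps, by pin tool, on the day after seeding. Nuclei were counted after 5 days, and relative viability is the treated-to-vehicle ratio of nuclei counts. Values are medians of duplicate plates.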

[2] = compound: CC(C)=CC[C@@H](O)C1=CC(=O)c2c(O)ccc(O)c2C1=O [Shikonin] + Nc1nc2[nH]cc(CCc3ccc(C(=O)N[C@@H](CCC(=O)O)C(=O)O)cc3)c2c(=O)[nH]1 [Pemetrexed] (partner 0.2 µM)
How it was run: as §1

[3] = compound: CC(C)=CC[C@@H](O)C1=CC(=O)c2c(O)ccc(O)c2C1=O [Shikonin] + O=C(CCCCCCC(=O)Nc1ccccc1)NO [Vorinostat] (partner 1 µM)
How it was run: as §1

[4] = compound: CC(C)=CC[C@@H](O)C1=CC(=O)c2c(O)ccc(O)c2C1=O [Shikonin] + Nc1ncn([C@H]2C[C@H](O)[C@@H](CO)O2)c(=O)n1 [Decitabine] (partner 2 µM)
How it was run: as §1

[5] = compound: CC(C)=CC[C@@H](O)C1=CC(=O)c2c(O)ccc(O)c2C1=O [Shikonin] + CS(=O)(=O)CCNCc1ccc(-c2ccc3ncnc(Nc4ccc(OCc5cccc(F)c5)c(Cl)c4)c3c2)o1 [Lapatinib] (partner 2 µM)
How it was run: as §1

UMC-11 showed a relative viability ([1]; first compound 0.01 µM) of 0.469, a relative viability ([1]; first compound 0.1 µM) of 0.532 and a relative viability ([1]; first compound 0.3162 µM) of 0.492. For the same cell line, the relative viability ([1]; first compound 1 µM) was 0.526, the relative viability ([2]; first compound 0.01 µM) was 0.813 and the relative viability ([2]; first compound 0.1 µM) was 0.942. It also gave a relative viability ([2]; first compound 0.3162 µM) of 0.836, a relative viability ([2]; first compound 1 µM) of 0.793 and a relative viability ([3]; first compound 0.01 µM) of 0.322. For the same cell line, the relative viability ([3]; first compound 0.1 µM) was 0.34, the relative viability ([3]; first compound 0.3162 µM) was 0.415 and the relative viability ([3]; first compound 1 µM) was 0.396. For the same cell line, the relative viability ([4]; first compound 0.01 µM) was 0.576, the relative viability ([4]; first compound 0.1 µM) was 0.614 and the relative viability ([4]; first compound 0.3162 µM) was 0.665. The relative viability ([4]; first compound 1 µM) was 0.74, the relative viability ([5]; first compound 0.01 µM) was 1 and the relative viability ([5]; first compound 0.1 µM) was 1.08. The relative viability ([5]; first compound 0.3162 µM) was 1 and the relative viability ([5]; first compound 1 µM) was 1.12.

Reference: the supplement of paper PMC10307832
